From US5240717A, “Process for mannose and mannose isomerase production using mannose isomerase-producing pseudomonas” (Amano Pharmaceutical Co., Ltd., priority 1990, dated 1993)

Test system: mannose isomerase
Test: thermal and pH stability of the enzyme of the invention (residual activity)
Type: physicochemical, Pseudomonas sp. AM-9582
Settings: presence of calcium ions
Description: The residual activities after heating treatment at 60° C. for 5, 10, 15, 20, 30 minutes in 0.05M Tris buffer (pH 7.0) are, about 90%, 68%, 52%, 42%, 30% respectively.
The residual activity was measured after the enzyme was incubated in 0.1M buffer (acetate or phosphate buffer) of various pH at room temperature (25° C.) for 3 hours. As the result, it is stable in the pH range 6 to 9.
(§1) Into 0.5 ml of a 0.1M phosphate buffer (pH 7.0) containing 0.2M mannose dissolved therein is added a suitable amount of the enzyme, the total volume is made up with water to 1.0 ml, and the reaction mixture is incubated at 50° C. The amount of fructose formed is determined by the cysteine-carbazole method. The amount of the enzyme forming 1 micromole of fructose per one minute under this condition is defined as one unit.

SMILES	Effect on thermal stability of the enzyme
[Ca+2] [calcium ions]	increases the thermal stability

Test system: mannose isomerase
Test: mannose isomerase activity of the enzyme of the invention (optimum conditions, substrates, inhibitors)
Type: biochemical, Pseudomonas sp. AM-9582
Settings: not given
Description: It is active in a pH range from about 6 to 11, but the optimum pH is about 8 (under the reaction condition of 50° C. for 30 minutes, in 0.1M phosphate buffer).
It is active up to about 70° C., but the optimum temperature is about 55° C. under the reaction conditions of 0.1M mannose, 0.05M Tris buffer (pH 7.0) for 30 minutes.
as §1

SMILES	Substrate specificity (activity of the enzyme on the sugar)
C[C@@H](O)[C@@H](O)[C@H](O)[C@H](O)C=O [D-rhamnose]	not substantially
O=C[C@H](O)[C@@H](O)[C@H](O)[C@H](O)CO [D-glucose]	not substantially
O=C[C@@H](O)[C@@H](O)[C@H](O)CO [D-lyxose]	active
O=C[C@H](O)[C@H](O)[C@H](O)CO [D-ribose]	not substantially
O=C[C@@H](O)[C@H](O)[C@H](O)CO [D-arabinose]	not substantially
C[C@H](O)[C@H](O)[C@@H](O)[C@@H](O)C=O [L-rhamnose]	not substantially
C[C@@H](O)[C@H](O)[C@H](O)[C@@H](O)C=O [D-fucose]	not substantially
C[C@H](O)[C@@H](O)[C@@H](O)[C@H](O)C=O [L-fucose]	not substantially
O=C[C@H](O)[C@@H](O)[C@@H](O)CO [L-arabinose]	not substantially
O=C[C@H](O)[C@@H](O)[C@H](O)CO [D-xylose]	not substantially
O=C[C@@H](O)[C@@H](O)[C@H](O)[C@H](O)CO [D-mannose]	active
O=C[C@@H](O)[C@H](O)[C@@H](O)CO [L-xylose]	not substantially

Same assay, conditions: 5×10^-3 M of inhibitor

SMILES	Inhibition of the enzyme
O=[N+]([O-])[O-].[Ag+] [AgNO3]	strongly inhibited
[Cl][Al]([Cl])[Cl] [AlCl3]	strongly inhibited
O=S(=O)([O-])[O-].[Fe+2] [FeSO4]	strongly inhibited
O=C(O)c1cc[c]([Hg][Cl])cc1 [p-chloromercury benzoate]	strongly inhibited
[Cl][Hg][Cl] [HgCl2]	strongly inhibited

Test system: Salmonella
Test: not given
Settings: cited from earlier work

SMILES	Growth of Salmonella
O=C[C@@H](O)[C@@H](O)[C@H](O)[C@H](O)CO [D-mannose]	inhibits the growth
